Entries after “also recorded” stand apart in the source; their conditions may differ.
Experiments:
[1] = Monitoring of creatinine phosphokinase (CPK) and adverse reactions during treatment; type: in vivo, human; conditions: 64 critically ill patients, 500 mg q24h i.v., during the treatment period
Experimental: Demographic and clinical characteristics of the enrolled patients were also collected from the medical records, including age, sex, weight, diagnosis, comorbidities, outcome, combination of other drugs (including antimicrobials), daily complete blood counts, biochemical test results (including liver and renal function and creatinine phosphokinase (CPK)), and whether CRRT or ECMO therapy was performed. In addition, acute physiology and chronic health evaluation (APACHE) and sequential organ failure assessment (SOFA) scores were calculated for each patient to determine disease severity. The patient’s creatinine clearance (CLCR) was calculated according to the Cockcroft-Gault formula based on serum creatinine at steady state on day 3.
The daptomycin dose was 500 mg every 24 h.

[2] = cited from earlier work
[3] = From the text: Plasma samples were collected from patients who received an intravenous infusion of daptomycin in the intensive care unit (ICU) of Zhongnan Hospital of Wuhan University from April 2021 to December 2022 according to the inclusion and exclusion criteria and the clinical sample sampling protocol for blood drug concentration testing. Patients who fulfilled the following criteria were eligible: ≥18 years old; treated with daptomycin for proven/probable infections caused by Gram-positive organisms that were unresponsive or intolerant to other antimicrobial agents. The exclusion criteria were pregnancy, known or suspected hypersensitivity to daptomycin and its excipients, and incomplete or missing laboratory data before and after treatment.
Daptomycin (Jiangsu Hengrui Medicine Co., Ltd.) dissolved in 100 mL normal saline was administered as a 30-min infusion. The daptomycin dose was 500 mg every 24 h. To obtain a complete blood drug concentration time curve after administration, we took into account the equilibrium phase (near peak concentration) and elimination phase of the drug in the design of sampling time points. On the first day of administration, blood samples were collected at 0, 0.5, 1, 2, 4, 8, 12, and 24 h after infusion. On the third day of administration, blood samples were collected before administration and at 0, 0.5, 1, 2, 4, 8, 12, and 24 h after infusion. On the fifth and seventh days, blood samples were collected before administration and at 0.5 and 4 h after infusion. Blood was drawn and allowed to clot in yellow blood-collecting tubes containing separating glue and a coagulant accelerator. Serum was collected by centrifugation and stored at −80°C until assayed. As soon as the study dose was administered, the participants were monitored for potential side effects. Serious adverse events were defined as adverse events related to daptomycin that required treatment discontinuation.
Serum daptomycin concentrations were measured using a high-performance liquid chromatography-tandem mass spectrometry method developed in our laboratory, the lower limit of quantification was 0.05 μg mL^−1. Briefly, serum samples were analyzed after protein precipitation. Daptomycin-d5 (Beijing Hager Biotechnology Co., Ltd.) was used as an internal standard. A Waters ACQUITY UPLC C8 column (2.1 mm × 50 mm, 1.7 μm) was used for separation. The mobile phase consisted of phase A: water (0.1% formic acid), phase B: 1:1 methanol: acetonitrile (0.1% formic acid) at a flow rate of 0.4 mL min^−1, column temperature of 45°C, injection volume of 2 μL, and analysis time of 4 min. Ion transitions were performed using positive electrospray ionization in the multiple reaction monitoring mode.
Before measurement, the sample was restored to room temperature, 100 μL of 1:1 methanol: acetonitrile was measured into a […] EP tube, then 10 μL of daptomycin-d5 with 40 μL of sample/standard/quality control was added, the sample was vortex shaken for 1 min, centrifuged at high speed for 8 min (14,500 r/min), and the supernatant was placed in a 96-well plate for the assay.
NONMEM (version 8.1; ICON Development Solutions, Hanover, MD, United States) was used to establish a population PK model for daptomycin and to perform Monte Carlo simulations ([Bauer et al., 2007]). The ADAPT-TRAN program was used for pre- and post-processing ([Savic et al., 2009]). This study explored one- and two-compartment models of population PK of daptomycin. The two-compartment, disposition model was parameterised in terms of total clearance (CL), volume of distribution in the central compartment (VC), volume of distribution in the peripheral compartment (VP), and intercompartmental clearance (Q). The first order conditional estimation with inter- and intra-subject variability interaction (FOCE-I) was employed for all model runs. The inter-individual variability (η) was described using lognormal distributions, and a mixed additive and proportional model was chosen for residual variability (Ɛ). […]

[4] = bootstrap analysis with 1000 samples

## CCCCCCCCCC(=O)N[C@@H](Cc1c[nH]c2ccccc12)C(=O)N[C@H](CC(N)=O)C(=O)N[C@@H](CC(=O)O)C(=O)N[C@@H]1C(=O)NCC(=O)N[C@@H](CCCN)C(=O)N[C@@H](CC(=O)O)C(=O)N[C@H](C)C(=O)N[C@@H](CC(=O)O)C(=O)NCC(=O)N[C@H](CO)C(=O)N[C@@H]([C@H](C)CC(=O)O)C(=O)N[C@@H](CC(=O)c2ccccc2N)C(=O)O[C@@H]1C [daptomycin, Daptomycin]
[1]
  CPK elevation or other adverse reactions related to daptomycin: No increase in CPK or other adverse reactions; also recorded: no elevation of CPK associated with daptomycin was found
[2]; ref Dvorchik et al., 2004
  metabolism by liver enzymes: not metabolized by liver enzymes
[2]; ref Enoch et al., 2007
  eliminated by the kidneys: 78%
[2]; ref Hawkey, 2008
  half-life: approximately 8 h
[3]; [4]
  Q, bootstrap median: 2.086 L/h
  VC, bootstrap median: 4.14 L
  VP, bootstrap median: 3.527 L
[3]; human, in vivo
  CL, renal part: coefficient of CCR/54 in the final covariate model: 0.148 L/h
  CRRT clearance, bootstrap median: 0.386 L/h
  NR (no renal clearance), bootstrap median: 0.231 L/h
  Q: 2.13 ± 0.17 L/h
  R (renal clearance), bootstrap median: 0.15
  R (renal clearance), final model estimate: 0.152
  V1: 4.20 ± 0.19 L
  V2: 3.67 ± 0.25 L
  non-renal clearance rate (CLNR) of non-CRRT patients: 0.23 ± 0.05 L/h
  renal clearance part (CLR), coefficient × (CCR/54): 0.14 ± 0.035
[3]; human, in vivo, iv
  NR (no renal clearance), final model estimate: 0.229 L/h
  Q (intercompartmental clearance), final model estimate: 2.09 L/h
  VC (volume of distribution in the central compartment), final model estimate: 4.14 L
  VP (volume of distribution in the peripheral compartment), final model estimate: 3.52 L
  clearance: 6.43 mL/min
[3]; sex as covariate in forward inclusion, not retained in the final model
  VP of males relative to females: approximately 1.4 times
